In patent publication US6387912B1, “Utilization of pyrimidine derivatives for preventing and treating cerebral ischaemia” (BASF Aktiengesellschaft, priority 1999, dated 2002):
Structures can show the parent of a compound that is named as a salt.

Row | SMILES | melting point
1 | COc1ccc(N2CCN(CCn3cnc4sc(C(=O)N(C)C)c(C)c4c3=O)CC2)c(OC)c1 [Example 30, 3,4-Dihydro-5-methyl-6-dimethylcarbamoyl-3-[2-(4-(2,4-dimethoxyphenyl)piperazin-1-yl)ethyl]thieno-[2,3-d]pyrimidin-4-one] | 170 to 171 °C
2 | CN1CCc2c(sc3ncn(CCN4CCN(c5ncccn5)CC4)c(=O)c23)C1 [Example 27, 3,4,5,6,7,8-Hexahydro-7-methyl-3-[2-(4-pyrimidin-2-ylpiperazin-1-yl)ethyl]pyrido[4′,3′:4,5]thieno[2,3-d]-pyrimidin-4-one] | 146 to 148 °C
3 | CCOC(=O)N1Cc2sc3ncn(CC(C)N4CCN(c5ccccc5Cl)CC4)c(=O)c3c2C1 (stereo not shown) [Example 39, 3,4,5,7-Tetrahydro-6-carboethoxy-3-[2-(4-(2-chlorophenyl)-piperazin-1-yl)propyl]pyrrolo[3′,4′:4,5]thieno-[2,3-d]pyrimidin-4-one] | 172 °C
4 | COc1ccccc1N1CCN(CCn2cnc3sc4c(c3c2=O)CCN(C(C)=O)C4)CC1 [Example 116, 3,4,5,6,7,8-Hexahydro-7-acetyl-3-[2-(4-(2-methoxyphenyl)-piperazin-1-yl)ethyl]pyrido[4′,3′:4,5]thieno[2,3-d]-pyrimidin-4-one] | 170 to 172 °C
5 | CN1CCc2c(sc3ncn(CCN4CCN(c5ccccc5)CC4)c(=O)c23)C1 [Example 145, 3,4,5,6,7,8-Hexahydro-7-methyl-3-[2-(4-phenylpiperazin-1-yl)ethyl]pyrido[4′,3′:4,5]thieno[2,3-d]pyrimidin-4-one] | 121 to 123 °C
6 | CCOC(=O)N1Cc2sc3ncn(CCN4CCN(c5cccc6c5CCC6)CC4)c(=O)c3c2C1 [Example 44, 3,4,5,7-Tetrahydro-6-carboethoxy-3-[2-(4-indan-4-ylpiperazin-1-yl)ethyl]pyrrolo[3′,4′:4,5]thieno[2,3-d]pyrimidin-4-one] | 149 °C
7 | COc1ccccc1N1CCN(CCn2c(O)nc3sc4c(c3c2=O)CCN(C(C)=O)C4)CC1 [Example 121, 3,4,5,6,7,8-Hexahydro-7-acetyl-2-hydroxy-3-[2-(4-(2-methoxyphenyl)piperazin-1-yl)ethyl]pyrido[4′,3′:4,5]thieno-[2,3-d]pyrimidin-4-one] | 135 to 137 °C
8 | Cc1ccnc(N2CCN(CCn3cnc4sc5c(c4c3=O)CCN(C)C5)CC2)n1 [Example 153, 3,4,5,6,7,8-Hexahydro-7-methyl-3-[2-(4-(4-methylpyrimidin-2-yl)piperazin-1-yl)ethyl]pyrido[4′,3′:4,5]thieno[2,3-d]-pyrimidin-4-one] | 136 to 138 °C
9 | Cc1c(C(=O)N(C)C)sc2ncn(CCN3CCN(c4ccccc4C#N)CC3)c(=O)c12 (as salt: hydrochloride) [Example 15, 3,4-Dihydro-5-methyl-6-dimethylcarbamoyl-3-[2-(4-(2-cyanophenyl)piperazin-1-yl)ethyl]thieno[2,3-d]pyrimidin-4-one] | 210 °C
10 | CN1CCc2c(sc3ncn(CCN4CCN(c5ccc6ccccc6c5)CC4)c(=O)c23)C1 [Example 73, 3,4,5,6,7,8-Hexahydro-7-methyl-3-[2-(4-naphth-2-ylpiperazin-1-yl)ethyl]pyrido[4′,3′:4,5]thieno[2,3-d]pyrimidin-4-one] | 140 to 141 °C
11 | Cc1c(C(=O)N(C)C)sc2ncn(CCN3CCN(c4ncnc5ccccc45)CC3)c(=O)c12 (as salt: hydrochloride) [Example 29, 3,4-Dihydro-5-methyl-6-dimethylcarbamoyl-3-[2-(4-quinazolin-4-ylpiperazin-1-yl)ethyl]thieno[2,3-d]pyrimidin-4-one] | 295 to 300 °C
12 | Cc1ccc2ccccc2c1N1CCN(CCn2cnc3sc(C(=O)N(C)C)c(C)c3c2=O)CC1 [Example 4, 3,4-Dihydro-5-methyl-6-dimethylcarbamoyl-3-[2-(4-(2-methyl-1-naphthyl)piperazin-1-yl)ethyl]-thieno[2,3-d]pyrimidin-4-one] | 178 to 180 °C
13 | CN1CCc2c(sc3ncn(CCN4CCN(c5ccc(F)c6ccccc56)CC4)c(=O)c23)C1 [Example 140, 3,4,5,6,7,8-Hexahydro-7-methyl-3-[2-(4-(4-fluoronaphth-1-yl)-piperazin-1-yl)ethyl]pyrido[4′,3′:4,5]thieno[2,3-d]-pyrimidin-4-one] | 157 to 158 °C
